According to US9744158B2, “Veterinary antiprolactinic composition for ruminants” (CEVA SANTE ANIMALE, priority 2008, dated 2017):

Tested on: gestating cows
Assay: Clinical safety study (abortion, fetal toxicity) in gestating ruminants (Example 3)
Assay type: in vivo
Conditions: two injections at interval of 48 hours, 25 mcg/kg
Method: This study aims to show the absence of risks such as abortions and fetus toxicity during the use of cabergoline in gestating ruminants even in the case of an overdose of cabergoline based veterinary compositions according to the regimen prescribed in the present invention. Groups of cows at different gestating stages receive the treatment at different doses: • 3 months of gestation (6 animals), dose of 15 mcg/kg—2 injections at an interval of 48 hours • 7 to 8 months of gestation: (5 animals), dose of 15 mcg/kg—2 injections at an interval of 48 hours • 6.5 to 7.5 months of gestation: (11 animals), dose of 25 mcg/kg—2 injections an interval of 48 hours
The formulation described in the Example 1, containing 500 mcg/ml of cabergoline in injectable solution is used in this study.
Regular clinical exams were conducted during a period lasting from 7 days before the treatment to 15 days after the treatment:
Daily general inspection and abortions,
Clinical exam of the genital tract including transrectal palpation and an ultrasound, in order to evaluate the suffering and fetal viability.
Blood samplings are conducted one day before the treatment and 15 days after the treatment to follow the plasmatic concentrations of different hormones and proteins indicating the health of the placenta and fetus, such as progesterone, estrone sulfate and the PAG (Pregnancy Associated Glycoprotein). […]

`C=CCN1C[C@H](C(=O)N(CCCN(C)C)C(=O)NCC)C[C@@H]2c3cccc4[nH]cc(c34)C[C@H]21` [cabergoline, N-[3-(Dimethylamino)propyl]-N-[(ethylamino)carbonyl]-6-(2-propenyl)-8 g-ergoline-8-carboxamide] was tested, and the abortions was “do not provoke any abortions” and the “harmful effect on the gestation, viability and health of the new born calves” value was “neither do they have any harmful effect”.
